Source: patent publication US20080119515A1, “Heterocyclic Kinase Inhibitors: Methods of Use and Synthesis” (priority 2003, published 2008)

These compounds were tested against T1, ZAP-70 (Homo sapiens, UniProt P43403) (assay: DELFIA assay (ZAP-70 kinase, phosphorylation of biotinylated poly(glu,tyr))). Settings: ZAP-70 DELFIA, class symbols; read-out: Activity (IC50 in vitro).
T1 sequence (P43403 1-619): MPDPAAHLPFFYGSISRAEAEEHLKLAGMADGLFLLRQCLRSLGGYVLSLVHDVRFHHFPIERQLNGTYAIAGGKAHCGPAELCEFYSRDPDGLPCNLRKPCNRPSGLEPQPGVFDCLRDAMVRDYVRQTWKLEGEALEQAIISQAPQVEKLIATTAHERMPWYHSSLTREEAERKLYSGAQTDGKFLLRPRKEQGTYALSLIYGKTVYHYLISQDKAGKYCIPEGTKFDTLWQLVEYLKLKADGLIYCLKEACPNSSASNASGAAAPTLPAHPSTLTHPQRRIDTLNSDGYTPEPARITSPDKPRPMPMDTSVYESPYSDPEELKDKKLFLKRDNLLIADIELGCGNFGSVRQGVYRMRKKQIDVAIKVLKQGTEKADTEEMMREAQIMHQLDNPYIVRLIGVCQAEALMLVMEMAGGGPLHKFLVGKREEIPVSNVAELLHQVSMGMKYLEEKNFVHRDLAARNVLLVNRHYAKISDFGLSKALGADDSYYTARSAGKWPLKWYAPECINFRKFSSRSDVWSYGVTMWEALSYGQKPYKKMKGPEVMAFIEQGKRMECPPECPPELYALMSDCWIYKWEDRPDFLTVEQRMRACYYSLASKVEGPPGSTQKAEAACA
Type: biochemical
Method in brief: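 3.1 nM ZAP-70 pre-incubated 10 min at room temperature with compound ([…]) and 62.5 nM biotinylated poly(glu,tyr) in 62.5 mM Mops pH 7.0, 12.5 mM MgCl2, 12.5% glycerol, 6.25% DMSO (pre-incubation concentrations); ATP added from 5 mM stock, 30 min reaction, EDTA stop. Phosphorylation read by DELFIA europium anti-phosphotyrosine fluorescence (340/615).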
For N#Cc1ccc(-c2ccc3nc(N4CCCC(c5ccccc5)C4)cc(C(=O)N4CCC[C@H]4CN4CCCC4)c3c2)cc1 (some centres unmarked) [Compound 265], the IC50 was > 10 µM.
With N#Cc1ccc(-c2ccc3nc(N4CCCC(c5ccc(C(F)(F)F)cc5)C4)cc(C(=O)N4CCC[C@H]4CN4CCCC4)c3c2)cc1 (some centres unmarked) [Compound 266] the IC50 was > 10 µM.
N#Cc1ccc(-c2ccc3nc(N4CCCC(c5ccccc5F)C4)cc(C(=O)N4CCC[C@H]4CN4CCCC4)c3c2)cc1 (some centres unmarked) [Compound 267] was tested, and the IC50 was > 10 µM.
For N#Cc1ccc(-c2ccc3nc(N4CCCC(c5cccc(F)c5)C4)cc(C(=O)N4CCC[C@H]4CN4CCCC4)c3c2)cc1 (some centres unmarked) [Compound 268], the IC50 was > 10 µM.
In the case of N#Cc1ccc(-c2ccc3nc(N4CCCC(c5cccc(C(F)(F)F)c5)C4)cc(C(=O)N4CCC[C@H]4CN4CCCC4)c3c2)cc1 (some centres unmarked) [Compound 269], the IC50 is reported as > 10 µM.
For N#Cc1ccc(-c2ccc3nc(NCc4cccs4)cc(C(=O)N4CCC[C@H]4CN4CCCC4)c3c2)cc1 [Compound 270], the IC50 was > 10 µM.
Cc1ccsc1CNc1cc(C(=O)N2CCC[C@H]2CN2CCCC2)c2cc(-c3ccc(C#N)cc3)ccc2n1 [Compound 271] was tested, and the IC50 was > 10 µM.
In the case of N#Cc1ccc(-c2ccc3nc(NCC4(c5cccs5)CC4)cc(C(=O)N4CCC[C@H]4CN4CCCC4)c3c2)cc1 [Compound 272], the IC50 is reported as > 10 µM.
In the case of CN(CCc1cccs1)c1cc(C(=O)N2CCC[C@H]2CN2CCCC2)c2cc(-c3ccc(C#N)cc3)ccc2n1 [Compound 273], the IC50 is reported as > 10 µM.
O=C(c1cc(CCc2ccccc2)nc(CCc2ccccc2)c1)N1CCC[C@H]1CN1CCCC1 [Compound 274] was tested, and the IC50 was > 10 µM.
In the case of CN(Cc1ccccc1)c1cc(C(=O)N2CCC[C@H]2CN2CCCC2)cc(-c2ccccc2)n1 [Compound 275], the IC50 is reported as > 10 µM.
In the case of CN(Cc1ccccc1)c1cc(C(=O)N2CCC[C@H]2CN2CCCC2)cc(-c2ccc3c(c2)OCO3)n1 [Compound 276], the IC50 is reported as > 10 µM.
CCCCCCc1cc(C(=O)N2CCC[C@H]2CN2CCCC2)cc(N(C)Cc2ccccc2)n1 [Compound 277] was tested, and the IC50 was > 10 µM.
CN(Cc1ccccc1)c1cc(C(=O)N2CCC[C@H]2CN2CCCC2)cc(/C=C/c2ccc(C(F)(F)F)cc2)n1 [Compound 278] was tested, and the IC50 was > 10 µM.
For CN(Cc1ccccc1)c1cc(C(=O)N2CCC[C@H]2CN2CCCC2)cc(/C=C/c2ccccc2)n1 [Compound 279], the IC50 was > 10 µM.
With O=C(c1cc(NCc2ccc(C(F)(F)F)cc2)nc2ccc(-c3ccc4c(c3)OCC4)cc12)N1CCC[C@H]1CN1CCCC1 [Compound 280] the IC50 was < 1 µM.
For O=C(c1cc(NCc2ccc(C(F)(F)F)cc2)nc2ccc(C#Cc3ccccc3)cc12)N1CCC[C@H]1CN1CCCC1 [Compound 281], the IC50 was < 1 µM.
COc1ccc(C#Cc2ccc3nc(NCc4ccc(C(F)(F)F)cc4)cc(C(=O)N4CCC[C@H]4CN4CCCC4)c3c2)cc1 [Compound 282] showed an IC50 of 1 to 10 µM.
For O=C(c1cc(NCc2ccc(C(F)(F)F)cc2)nc2ccc(C#Cc3ccc(Cl)cc3)cc12)N1CCC[C@H]1CN1CCCC1 [Compound 283], the IC50 was < 1 µM.
For O=C(c1cc(NCc2ccc(C(F)(F)F)cc2)nc2ccc(C#Cc3cccc(C(F)(F)F)c3)cc12)N1CCC[C@H]1CN1CCCC1 [Compound 284], the IC50 was < 1 µM.
O=C(c1cc(NCc2ccc(C(F)(F)F)cc2)nc2ccc(CCc3ccccc3)cc12)N1CCC[C@H]1CN1CCCC1 [Compound 285] showed an IC50 of 1 to 10 µM.
With O=C(c1cc(NCc2ccc(C(F)(F)F)cc2)nc2ccc(/C=C/c3ccc(Cl)cc3)cc12)N1CCC[C@H]1CN1CCCC1 [Compound 286] the IC50 was < 1 µM.
O=C(c1cc(NCc2ccc(C(F)(F)F)cc2)nc2ccc(CCc3ccc(Cl)cc3)cc12)N1CCC[C@H]1CN1CCCC1 [Compound 287] gave an IC50 of 1 to 10 µM.
O=C(c1cc(NCc2ccc(C(F)(F)F)cc2)nc2ccc(/C=C/c3cccc(C(F)(F)F)c3)cc12)N1CCC[C@H]1CN1CCCC1 [Compound 288] was tested, and the IC50 was 1 to 10 µM.
O=C(c1cc(NCc2ccc(C(F)(F)F)cc2)nc2ccc(CCc3cccc(C(F)(F)F)c3)cc12)N1CCC[C@H]1CN1CCCC1 [Compound 289] gave an IC50 of 1 to 10 µM.
Compound O=C(c1cc(NCc2ccc(C(F)(F)F)cc2)nc2ccc(/C=C/c3ccccc3)cc12)N1CCC[C@H]1CN1CCCC1 [Compound 290] has an IC50 of 1 to 10 µM.
For CCCCc1ccc2nc(NCc3ccc(C(F)(F)F)cc3)cc(C(=O)N3CCC[C@H]3CN3CCCC3)c2c1 [Compound 291], the IC50 was > 10 µM.
For O=C(c1cc(NCc2ccc(C(F)(F)F)cc2)nc2ccc(-c3cc(Cl)cc(Cl)c3)cc12)N1CCC[C@H]1CN1CCCC1 [Compound 292], the IC50 was < 1 µM.
With O=C(c1cc(NCc2ccc(C(F)(F)F)cc2)nc2ccc(-c3cccs3)cc12)N1CCC[C@H]1CN1CCCC1 [Compound 293] the IC50 was 1 to 10 µM.
For O=C(c1cc(NCc2ccc(C(F)(F)F)cc2)nc2ccc(-c3ccsc3)cc12)N1CCC[C@H]1CN1CCCC1 [Compound 294], the IC50 was < 1 µM.
O=C(c1cc(NCc2ccc(C(F)(F)F)cc2)nc2ccc(-c3cccc(C(F)(F)F)c3)cc12)N1CCC[C@H]1CN1CCCC1 [Compound 295] showed an IC50 of 1 to 10 µM.
O=C(c1cc(NCc2ccc(C(F)(F)F)cc2)nc2ccc(-c3ccc(C(F)(F)F)cc3)cc12)N1CCC[C@H]1CN1CCCC1 [Compound 296] gave an IC50 of 1 to 10 µM.
In the case of CC(=O)Nc1cccc(-c2ccc3nc(NCc4ccc(C(F)(F)F)cc4)cc(C(=O)N4CCC[C@H]4CN4CCCC4)c3c2)c1 [Compound 297], the IC50 is reported as > 10 µM.
O=C(c1cc(NCc2ccc(C(F)(F)F)cc2)nc2ccc(-c3cc4ccccc4s3)cc12)N1CCC[C@H]1CN1CCCC1 [Compound 298] was tested, and the IC50 was 1 to 10 µM.
For CC(=O)c1ccc(-c2ccc3nc(NCc4ccc(C(F)(F)F)cc4)cc(C(=O)N4CCC[C@H]4CN4CCCC4)c3c2)s1 [Compound 299], the IC50 was < 1 µM.
For O=C(c1cc(NCc2ccc(C(F)(F)F)cc2)nc2ccc(-c3csc4ccccc34)cc12)N1CCC[C@H]1CN1CCCC1 [Compound 300], the IC50 was < 1 µM.
With O=C(c1cc(NCc2ccc(C(F)(F)F)cc2)nc2ccc(-c3ccc(F)cc3)cc12)N1CCC[C@H]1CN1CCCC1 [Compound 302] the IC50 was < 1 µM.
In the case of O=C(c1cc(NCc2ccc(C(F)(F)F)cc2)nc2ccc(-c3ccc(F)c(Cl)c3)cc12)N1CCC[C@H]1CN1CCCC1 [Compound 303], the IC50 is reported as < 1 µM.
Compound O=C(c1cc(NCc2ccc(C(F)(F)F)cc2)nc2ccc(-c3cccc(F)c3)cc12)N1CCC[C@H]1CN1CCCC1 [Compound 304] has an IC50 of 1 to 10 µM.
In the case of O=C(c1cc(NCc2ccc(C(F)(F)F)cc2)nc2ccc(-c3ccc(Cl)cc3)cc12)N1CCC[C@H]1CN1CCCC1 [Compound 305], the IC50 is reported as < 1 µM.
In the case of O=C(c1cc(NCc2ccc(C(F)(F)F)cc2)nc2ccc(-c3cccc(Cl)c3)cc12)N1CCC[C@H]1CN1CCCC1 [Compound 306], the IC50 is reported as < 1 µM.
With O=C(c1cc(NCc2ccc(C(F)(F)F)cc2)nc2ccc(-c3ccc(F)cc3F)cc12)N1CCC[C@H]1CN1CCCC1 [Compound 307] the IC50 was 1 to 10 µM.
With O=C(c1cc(NCc2ccc(C(F)(F)F)cc2)nc2ccc(-c3ccccc3F)cc12)N1CCC[C@H]1CN1CCCC1 [Compound 308] the IC50 was 1 to 10 µM.
For O=C(c1cc(NCc2ccc(C(F)(F)F)cc2)nc2ccc(-c3ccc(OC(F)(F)F)cc3)cc12)N1CCC[C@H]1CN1CCCC1 [Compound 309], the IC50 was 1 to 10 µM.
For O=C(c1cc(NCc2ccc(C(F)(F)F)cc2)nc2ccc(-c3cccc(OC(F)(F)F)c3)cc12)N1CCC[C@H]1CN1CCCC1 [Compound 310], the IC50 was < 1 µM.
In the case of CS(=O)(=O)c1ccc(CNc2cc(C(=O)N3CCC[C@H]3CN3CCCC3)c3cc(-c4ccc(C#N)cc4)ccc3n2)cc1 [Compound 311], the IC50 is reported as 1 to 10 µM.
With N#Cc1ccc(-c2ccc3nc(NCc4c(F)cccc4F)cc(C(=O)N4CCC[C@H]4CN4CCCC4)c3c2)cc1 [Compound 312] the IC50 was 1 to 10 µM.
COc1ccccc1CCNc1cc(C(=O)N2CCC[C@H]2CN2CCCC2)c2cc(-c3ccc(C#N)cc3)ccc2n1 [Compound 313] was tested, and the IC50 was 1 to 10 µM.
N#Cc1ccc(-c2ccc3nc(NC(CO)Cc4ccccc4)cc(C(=O)N4CCC[C@H]4CN4CCCC4)c3c2)cc1 (some centres unmarked) [Compound 315] was tested, and the IC50 was < 1 µM.
With N#Cc1ccc(-c2ccc3nc(N[C@H](CO)Cc4ccccc4)cc(C(=O)N4CCC[C@H]4CN4CCCC4)c3c2)cc1 [Compound 316] the IC50 was 1 to 10 µM.
With C[C@H](Nc1cc(C(=O)N2CCC[C@H]2CN2CCCC2)c2cc(-c3ccc(C#N)cc3)ccc2n1)[C@H](O)c1ccccc1 [Compound 317] the IC50 was < 1 µM.
Compound N#Cc1ccc(-c2ccc3nc(NCc4ccc5c(c4)CCO5)cc(C(=O)N4CCC[C@H]4CN4CCCC4)c3c2)cc1 [Compound 318] has an IC50 of 1 to 10 µM.
With N#Cc1ccc(-c2ccc3nc(NCc4cccc(OC(F)F)c4)cc(C(=O)N4CCC[C@H]4CN4CCCC4)c3c2)cc1 [Compound 319] the IC50 was < 1 µM.
For N#Cc1ccc(-c2ccc3nc(NCCc4cccc(O)c4)cc(C(=O)N4CCC[C@H]4CN4CCCC4)c3c2)cc1 [Compound 320], the IC50 was 1 to 10 µM.
N#Cc1ccc(-c2ccc3nc(NCc4cccc(O)c4)cc(C(=O)N4CCC[C@H]4CN4CCCC4)c3c2)cc1 [Compound 321] showed an IC50 of 1 to 10 µM.

Same assay, conditions: ZAP-70 DELFIA, numeric value; read-out: Activity (IC50 in vitro)
Compound Cc1ccc(-c2ccc3nc(NCc4ccc(C(F)(F)F)cc4)cc(C(=O)N4CCC[C@H]4CN4CCCC4)c3c2)s1 [Compound 301] has an IC50 of 1.78 µM.
